Where two headings read alike, the source gives them in different places. No end group written: not given here.
Tests used:
[1] = tested on: E. coli ML-35p; assay: Kinetics of permeabilization of the outer bacteria membrane (nitrocefin); format: cell-based, Escherichia coli
Description: (§1) The ability of the antimicrobial peptides for the respective permeabilization of the outer and inner bacteria membrane was tested by way of example on E. coli ML-35p (made available by Dr. R. E. Lehrer, Center for Health Sciences, Los Angeles, Calif., USA). The peptides were incubated in serial dilution with E. coli ML-35p and the time-dependent release of cell-internal components was measured in a slightly modified protocol according to Ericsson et al. (2002). For this purpose, the bacteria were cultured in Luria-Bertani (LB) medium with 100 μg/ml ampicillin (Fluka, Taufkirchen, Germany) until reaching an optical density of 0.4 at 600 nm wavelength. Then, the cells were washed three times by centrifugation at 4000 g for 1 min and subsequent up-take in 10 mM HEPES buffer pH 7.2. Finally, the cells were diluted to an optical density of 0.3 at 600 nm wavelength. To measure the permeabilization of the outer membrane, nitrocefin (Merck, Darmstadt, Germany) was diluted in HEPES buffer to a concentration of 60 μg/ml. The antimicrobial peptides were diluted in HEPES buffer to an end concentration of 12 μM, 24 μM, 48 μM and 96 μM end concentration. In the next step, 50 μl of nitrocefin were admixed with 50 μl of antimicrobial peptide and 50 μl of bacteria suspension such that an end concentration of 20 μg/ml of nitrocefin, 4 μM to 32 μM of antimicrobial peptide and bacteria with an optical density of 0.1 to 600 nm were present. The samples were mixed and the absorption at 500 nm wavelength was measured directly over a period of at least 90 min at 37° C. with regular shaking in a FLUOstar omega Microplate Reader (BMG Labtech, Ortenberg, Germany). The investigation of the permeabilization of the inner membrane was carried out in the same way except that instead of the nitrocefin accordingly 0-nitrophenyl-beta-D-galactoside (ONPG, Sigma-Aldrich) in an end concentration of 100 μg/ml was used and the absorption change was determined at a wavelength of 420 nm. The control used was samples without antimicrobial peptide, the positive control used for the membrane permeabilization was polymyxin B (Sigma-Aldrich) in an end concentration of 5 μM. For the data evaluation, firstly the measurement values of the corresponding negative controls were deducted from the measurement values of the samples, and the difference was then divided by the corresponding measurement values of the permeabilization control. Then, a graphical evaluation was carried out, the calculated values being plotted against the peptide concentration and being fitted with the help of the Origin Pro 8.1 G Software (OriginLab) according to a sigmoidal model.
(§2) As comparison parameter between the peptides, the times were ascertained from this at which 50% of the final signal level was reached. For this purpose, the equation with the percentage membrane permeabilization y, the time x in minutes, the lower plateau A1, the upper plateau A2, the point of inflection Log X0 and the Hill incline p
(§3) [formula] was used. The calculation of the parameters A1, A2, Log X0 and p was performed by the program by reference to the compensating curve. Further resolution of equation 5.1 for the case y=50 then produced for x the desired time at which the half-maximum signal level was reached.

[2] = tested on: E. coli ML-35p; assay: Kinetics of permeabilization of the inner bacteria membrane (ONPG); format: cell-based, Escherichia coli
Description: as §1, with “model. As representative examples, FIGS. 4 and 5 show the graphical evaluation for the kinetic investigation of the permeabilization of the outer E. coli bacteria membrane for the peptides N4 (FIG. 4) and O1 (FIG. 5).” for “model.”
as §2, §3

[3] = tested on: human histiocytic lymphoma cell line U937; assay: Long-term growth inhibition, minimum toxic concentration (MTC)
Description: The cytotoxic potential of the antimicrobial peptides was determined by way of example by reference to the human histiocytic lymphoma cell line U937 (DSMZ). The influence of the peptides on the permeability of the cell membrane and their longer-term growth-inhibiting effect was investigated. 15 ml of RPMI 1640 medium with 2 mM glutamine and 10% FCS (Biochrom, Berlin, Germany) were inoculated with 1·10^5 cells per ml and cultivated for three days at 37° in T75 cell culture bottles (TPP, Trasadingen, Switzerland) with constant gassing with 5% CO2 in a climatically controlled chamber. The medium was admixed with 10 U/ml penicillin and […] streptomycin (both AppliChem, Darmstadt, Germany) to avoid bacterial contaminations, with no further antibiotics being added during the subsequent recultivation. Before each experiment, the cells were washed by centrifugation at 100 g for five minutes and subsequent resuspension in RPMI 1640 medium with 2 mM glutamine and 10% FCS in each case two times and adjusted to a concentration of 1·10^5 cells per ml. Finally, in each case 100 μl of the U937 cells were transferred to the reaction chambers of a sterile 96-well polypropylene microtiter plate and admixed with in each case 100 μl of a prediluted antimicrobial peptide in RPMI 1640 medium without antibiotic addition, such that end concentrations of in each case 5·10^4 cells per ml at peptide concentrations between 0.25 μM and 64 μM were present. The negative control used was samples without antimicrobial peptide, while Triton X-100 (AppliChem) was used in an end concentration of 5% as positive control for the permeabilization. The samples were cultivated for two hours at 37° C. and with continuous gassing with 5% CO2 in a climatically controlled chamber. Then, in each case 100 μl of each sample were removed and transferred to new sterile microtiter plates for determining the direct membrane damage. The remaining 100 μl of the samples were cultivated for at least four further days.
For this purpose, 10 μl of lysing solution were added to in each case 100 μl of cell suspension and incubated for 60 minutes at 37° C. Then, the cell culture supernatants were investigated as described above. The lowest peptide concentration at which complete suppression of the cell growth was established after four days was stipulated as the minimum toxic concentration (MTC).

[4] = tested on: human histiocytic lymphoma cell line U937; assay: Cytotoxicity, direct membrane damage (CytoTox 96), LD50; format: cell-based; conditions: U937, two hours at 37° C., 0.25-64 μM
Description: The direct membrane damage was investigated with the help of the CytoTox 96 Non-Radioactive Cytotoxicity Assay (Promega, Mannheim, Germany). For this purpose, the cells were sedimented at 100 g for ten minutes at 4° C., and 50 μl of the resulting culture supernatant were added to 50 μl of the CytoTox substrate mix. After an incubation time of 30 minutes in the dark at room temperature, 50 μl of the CytoTox stopping solution were added to the sample and the absorption was measured at 490 nm. To determine the LD50 value, the measurement value of the negative control was deducted from the absorption values and divided by the measurement value of the permeabilization control. The calculated values were plotted graphically against the peptide concentration and fitted using the Origin pro 8.1 G Software according to a sigmoidal model and the LD50 values were ascertained from this. The calculation was carried out analogously to example 5 by reference to the solution of equation 5.1 for the case y=50, where y in this case corresponds to the relative cytotoxicity in percent and x corresponds to the peptide concentration in μM. Representative graphical evaluations of LD50 values are shown in FIG. 6 by reference to the measurement results for the reference peptides BMAP-27, protamine and KL-helix, and also the peptide O1 according to the invention.

[5] = tested on: E. coli DH5α; conditions: DH5α, 18 h
Description: (§4) The minimum inhibitory concentration (MIC) of the peptides was carried out by way of example against gram(−) E. coli DH5α (and gram(+) Staphylococcus xylosus (both Deutsche Sammlung von Mikroorganismen and Zellkulturen, DSMZ) in a standardized microdilution method according to the general guidelines of the CLSI (Clinical and Laboratory Standards Institute 2006) and EUCAST (European Committee for Antimicrobial Susceptibility Testing of the European Society of Clinical Microbiology and Infectious Diseases 2003) with slight adaptations to the investigation of cationic antimicrobial peptides (Wiegand et al. 2008). The bacteria cells were cultivated in Mueller-Hinton-Boullion (MHB) to an optical density of 0.4 to 0.6 at 600 nm wavelength, corresponding to about 4·10^8 bacteria per ml. Then, the bacteria cultures were diluted to a bacteria concentration of about 1·10^5 bacteria per ml in sterile MHB. Using the peptides, series of 2-fold dilutions starting at 128 μM to the smallest dilution of 0.5 μM in MHB were prepared. The peptide dilutions were mixed with the dilute bacteria cultures in a […] in the chambers of a 96-well polypropylene microtiter plate (Starlab, Hamburg, Germany), so that the peptides were present in an end concentration between 64 μM and 0.25 μM at a bacteria concentration of 5·10^4 bacteria/ml. Sterile MHB served as negative control, and the positive control used as the corresponding bacteria concentration in MHB without the addition of peptide. The microtiter plates were incubated for 18 hours at 37° C. with shaking at 120 rpm in a climatically controlled chamber. After the incubation, the bacteria concentration was determined by renewed absorption measurement at a wavelength of 600 nm.

[6] = tested on: Staphylococcus xylosus; conditions: 18 h
Description: as §4

Substance | Toxicity LD50 [4] [µM] | Toxicity MTC (minimum toxic concentration) [3] [µM] | MIC E. coli [5] [µM] | MIC S. xylosus [6] [µM] | also measured
GRFKRFRKKFKKLFKKLSPVIPLLHLG-OH [BMAP-27] |  |  |  |  | Outer membrane, time to 50% of final signal ([1]; 4 μM peptide): <1 min; Outer membrane, time to 50% of final signal ([1]; 8 μM peptide): <1 min; Outer membrane, time to 50% of final signal ([1]; 16 μM peptide): <1 min; Outer membrane, time to 50% of final signal ([1]; 32 μM peptide): <1 min; Inner membrane, time to 50% of final signal ([2]; 4 μM peptide): 16 min; Inner membrane, time to 50% of final signal ([2]; 8 μM peptide): 9 min; Inner membrane, time to 50% of final signal ([2]; 16 μM peptide): 7 min; Inner membrane, time to 50% of final signal ([2]; 32 μM peptide): 5 min; Toxicity MTC (minimum toxic concentration) ([3]; U937, complete suppression of cell growth after four days): 4.0 µM
KRKKRK [H6, KRKKRK] | >64 | >64 | >64 | 16 | 
KRKILI [C7, KRKILI] | >64 | >64 | >64 | >64 | 
ILIKRK [N7, ILIKRK] | >64 | >64 | >64 | >64 | 
KKKKKIIIIIDDDDD [D1] | >64 | >64 | >64 | >64 | 
RKILILIKRK [N3] | >64 | >64 | 16 | 4 | 
KKKKKIIIIIKKKKK [D5] | >64 | >64 | 16 | 2 | 
KRKILILI [C5] | >64 | >64 | >64 | >64 | 
KRKSGSGSKRK [M6] | >64 | >64 | >64 | >64 | 
LIKRK [N8, LIKRK] | >64 | >64 | >64 | >64 | 
KRKLILIKRK [H2] | >64 | >64 | >64 | 16 | 

From patent US10556926B2, “Synthetic artificial peptides with antimicrobial effect” (priority 2014, dated 2020)
